Data on nine compounds can be found in BindingDB's records for patent US20250136596 (Insilico Medicine IP, 2025).

This experiment has as its target T1, Membrane-associated tyrosine- and threonine-specific cdc2-inhibitory kinase (Homo sapiens, UniProt Q99640).
T1 sequence (Q99640 whole entry): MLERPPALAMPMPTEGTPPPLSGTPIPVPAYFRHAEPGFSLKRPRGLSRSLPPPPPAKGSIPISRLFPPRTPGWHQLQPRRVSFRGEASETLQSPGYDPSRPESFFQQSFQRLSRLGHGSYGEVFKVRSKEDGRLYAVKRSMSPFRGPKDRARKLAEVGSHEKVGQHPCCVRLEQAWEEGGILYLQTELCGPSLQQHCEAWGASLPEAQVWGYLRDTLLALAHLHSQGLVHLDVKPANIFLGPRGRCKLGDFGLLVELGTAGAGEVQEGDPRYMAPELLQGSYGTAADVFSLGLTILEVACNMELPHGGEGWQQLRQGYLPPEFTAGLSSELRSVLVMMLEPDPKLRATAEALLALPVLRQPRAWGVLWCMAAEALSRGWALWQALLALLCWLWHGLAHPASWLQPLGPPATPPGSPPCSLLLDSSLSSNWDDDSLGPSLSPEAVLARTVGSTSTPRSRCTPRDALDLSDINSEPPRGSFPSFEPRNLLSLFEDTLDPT
Briefly: PKMYT1 HTRF Assay. The protocol: Compound serial dilution is performed by Echo, and the final concentrations vary from 10 μM to 0.5 nM. This was filled by the addition of 5 μL/well of Enzyme solution to the assay plate containing the compound. The plate was centrifuged at 1000 rpm for 1 minute, and incubate 15 minutes at 25 […]. Then 5 μL/well of tracer solution (Tracer 178) was added to initiate the reaction, and incubate for 60 minutes at 25° C. Next 5 μL GST-Tb was added into the assay plate, the plate was centrifuged at 1000 rpm for 1 minute, and incubate for 15 minutes at 25 […]. The assay plate was read on Envision.
(In general: Time-resolved FRET reads energy transfer from a long-lived donor to a nearby acceptor.)
The term IC50 denotes the midpoint of a concentration-inhibition curve. A lower IC50 goes with greater potency in that assay. As to `Cc1ncc(-c2cc3c(Cl)c(-c4c(C)ccc(O)c4C)cnc3[nH]2)cn1` [US20250136596, Example 23], the IC50 is under 10 nM.

On to `Cc1ncc(-c2[nH]c3ncc(-c4c(C)ccc(O)c4C)c(C#N)c3c2F)cn1` [US20250136596, Example 35], for which the IC50 was under 10 nM.

Consider `CNc1ncc(-c2cc3c(C#N)c(-c4c(C)ccc(O)c4C)cnc3[nH]2)cn1` [US20250136596, Example 41], for which the IC50 was under 10 nM.

`COc1ncc(-c2cc3c(C#N)c(-c4c(C)ccc(O)c4C)cnc3[nH]2)cn1` [US20250136596, Example 51] displayed an IC50 of under 10 nM.

Turning to `Cc1ccc(O)c(C)c1-c1cnc2[nH]c(-c3cncc(C#N)c3)cc2c1C#N` [US20250136596, Example 61], the IC50 is under 10 nM.

Compound `Cc1ccc(O)c(C)c1-c1cnc2[nH]c(-c3cnc(N)c(C(F)(F)F)c3)cc2c1C#N` [US20250136596, Example 62] had an IC50 of under 10 nM.

In turn, `Cc1ccc(O)c(C)c1-c1cnc2[nH]c(-c3cnc(S(C)(=O)=O)nc3)cc2c1C#N` [US20250136596, Example 95] gave an IC50 of under 10 nM.

In turn, `Cc1ncc(-c2[nH]c3ncc(-c4c(C)ccc(O)c4C)c(C#N)c3c2C)cn1` [US20250136596, Example 107] returned an IC50 of under 10 nM.

Compound `Cc1ccc(O)c(C)c1-c1cnc2[nH]c(-c3cnc4cn[nH]c4c3)cc2c1C#N` [US20250136596, Example 124] yielded an IC50 of under 10 nM.
